Measured values published in US20200405696A1, “INHIBITORS OF INDOLEAMINE 2,3-DIOXYGENASE AND/OR TRYPTOPHAN 2,3-DIOXYGENASE” (IDORSIA PHARMACEUTICALS LTD, priority 2018, published 2020).

How the values were obtained:
[1] = target: T1, Recombinant full-length human IDO1 (Homo sapiens, UniProt P14902); test: IDO1 enzymatic assay (NFK quantified by LCMS); format: biochemical; settings: 2 nM enzyme, 5 μM L-tryptophan, pH6.5, 30 minutes pre-incubation at RT; mean values when measured multiple times; read-out: hIDO activity (IC50 in nM)
T1 construct: Recombinant full-length human IDO1 with a N-terminal hexahistidine tag; hexahistidine (His6) (N); made in house; host or cells: E. coli
T1 sequence (P14902 whole entry): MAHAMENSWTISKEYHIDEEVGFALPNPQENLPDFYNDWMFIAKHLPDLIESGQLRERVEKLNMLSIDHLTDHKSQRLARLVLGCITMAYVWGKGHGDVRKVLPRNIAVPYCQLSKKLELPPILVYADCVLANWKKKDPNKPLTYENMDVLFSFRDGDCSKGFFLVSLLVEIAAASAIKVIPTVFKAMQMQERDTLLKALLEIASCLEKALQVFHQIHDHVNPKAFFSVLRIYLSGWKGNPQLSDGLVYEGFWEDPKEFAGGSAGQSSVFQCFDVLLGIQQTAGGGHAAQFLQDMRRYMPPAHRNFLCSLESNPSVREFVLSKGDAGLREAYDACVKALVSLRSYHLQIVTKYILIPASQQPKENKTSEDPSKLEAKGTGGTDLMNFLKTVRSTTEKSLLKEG
How it was run: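 IC50 comes from four-parameter logistic fits of duplicate data, with NFK quantified by LCMS and normalized to L-Trp-(indole-d5). Compound (0.5 nM–10 μM) was preincubated 30 min at RT with 2 nM E. coli-expressed IDO1 before a 30 min reaction with 5 μM tryptophan in pH 6.5 buffer containing ascorbate and methylene blue.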

[2] = target: T2, Recombinant human TDO comprising amino acids 19-407 (Homo sapiens, UniProt P48775); test: TDO2 enzymatic assay (NFK quantified by LCMS); format: biochemical; settings: 15 nM enzyme, 200 μM L-tryptophan, pH7, 30 minutes pre-incubation at RT; mean values when measured multiple times; read-out: hTDO activity (IC50 in nM)
T2 construct: Recombinant human TDO comprising amino acids 19-407 with a N-terminal hexahistidine tag; hexahistidine (His6) (N); made in house; host or cells: E. coli
T2 sequence (P48775 19-406 limits assumed): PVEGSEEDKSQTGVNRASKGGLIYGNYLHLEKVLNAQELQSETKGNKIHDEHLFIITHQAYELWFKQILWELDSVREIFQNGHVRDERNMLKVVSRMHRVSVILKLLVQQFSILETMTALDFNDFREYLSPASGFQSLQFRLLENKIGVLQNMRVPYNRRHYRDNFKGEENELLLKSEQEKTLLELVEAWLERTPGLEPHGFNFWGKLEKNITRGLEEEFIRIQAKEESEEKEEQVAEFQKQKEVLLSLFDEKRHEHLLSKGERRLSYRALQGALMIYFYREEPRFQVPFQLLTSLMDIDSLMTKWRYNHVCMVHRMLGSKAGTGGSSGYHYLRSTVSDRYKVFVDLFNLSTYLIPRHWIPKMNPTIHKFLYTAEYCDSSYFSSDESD
How it was run: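 NFK formed over 30 min at RT from 200 μM L-tryptophan was measured by LCMS, normalized to d5-tryptophan, after compound (0.5 nM–10 μM, duplicates, 0.6% DMSO) was preincubated 30 min with 15 nM recombinant His-tagged TDO 19-407 in phosphate buffer pH 7. IC50 from four-parameter logistic fit; repeats averaged.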

| IC50 [1] | IC50 [2] | SMILES |
| --- | --- | --- |
| 626 nM | > 10200 nM | CS(=O)(=O)CCOc1ccc(-n2cc(C(O)c3c(C4CC4)sc4cncn34)nn2)cc1 (racemic) [Example 205, rac-(2-Cyclopropyl-imidazo[5,1-b]thiazol-3-yl)-{1-[4-(2-methanesulfonyl-ethoxy)-phenyl]-1H-[1,2,3]triazol-4-yl}-methanol] |
| 7.11 nM | > 10200 nM | NS(=O)(=O)CCCOc1ccc(-n2cc(C(O)c3c(C4CC4)sc4cncn34)nn2)cc1 (racemic) [Example 206, rac-3-(4-{4-[(2-Cyclopropyl-imidazo[5,1-b]thiazol-3-yl)-hydroxy-methyl]-[1,2,3]triazol-1-yl}-phenoxy)-propane-1-sulfonic acid amide] |
| 26.9 nM | > 10200 nM | Cc1cc(O)ccc1-n1cc(C(O)c2c(C3CC3)sc3cncn23)nn1 (racemic) [Example 207, rac-4-{4-[(2-Cyclopropyl-imidazo[5,1-b]thiazol-3-yl)-hydroxy-methyl]-[1,2,3]triazol-1-yl}-3-methyl-phenol] |
| 9.58 nM | 6400 nM | Oc1ccc(-n2cc(C(O)c3c(C4CC4)sc4cncn34)nn2)c(F)c1 (racemic) [Example 208, rac-4-{4-[(2-Cyclopropyl-imidazo[5,1-b]thiazol-3-yl)-hydroxy-methyl]-[1,2,3]triazol-1-yl}-3-fluoro-phenol] |
| 22.1 nM | > 10200 nM | Oc1ccc(-n2cc(C(O)c3c(C4CC4)sc4cncn34)nn2)cc1C(F)(F)F (racemic) [Example 209, rac-4-{4-[(2-Cyclopropyl-imidazo[5,1-b]thiazol-3-yl)-hydroxy-methyl]-[1,2,3]triazol-1-yl}-2-trifluoromethyl-phenol] |
| 23.5 nM | > 10200 nM | Oc1ccc(-n2cc(C(O)c3c(C4CC4)sc4cncn34)nn2)cc1OC(F)(F)F (racemic) [Example 210, rac-4-{4-[(2-Cyclopropyl-imidazo[5,1-b]thiazol-3-yl)-hydroxy-methyl]-[1,2,3]triazol-1-yl}-2-trifluoromethoxy-phenol] |
| 15.8 nM | > 10200 nM | Cc1cc(-n2cc(C(O)c3c(C4CC4)sc4cncn34)nn2)ccc1O (racemic) [Example 211, rac-4-{4-[(2-Cyclopropyl-imidazo[5,1-b]thiazol-3-yl)-hydroxy-methyl]-[1,2,3]triazol-1-yl}-2-methyl-phenol] |
| 10.5 nM | 6190 nM | Oc1ccc(-n2cc(C(O)c3c(C4CC4)sc4cncn34)nn2)c(Cl)c1 (racemic) [Example 212, rac-3-Chloro-4-{4-[(2-cyclopropyl-imidazo[5,1-b]thiazol-3-yl)-hydroxy-methyl]-[1,2,3]triazol-1-yl}-phenol] |
| 199 nM | 2620 nM | Oc1ccc(-n2cc(C(O)c3c(C4CC4)sc4cncn34)nn2)c(OC(F)(F)F)c1 (racemic) [Example 213, rac-4-{4-[(2-Cyclopropyl-imidazo[5,1-b]thiazol-3-yl)-hydroxy-methyl]-[1,2,3]triazol-1-yl}-3-trifluoromethoxy-phenol] |
| 127 nM | 8890 nM | Oc1ccc(-n2cc(C(O)c3c(C4CC4)sc4cncn34)nn2)c(C(F)(F)F)c1 (racemic) [Example 214, rac-4-{4-[(2-Cyclopropyl-imidazo[5,1-b]thiazol-3-yl)-hydroxy-methyl]-[1,2,3]triazol-1-yl}-3-trifluoromethyl-phenol] |
| 27.6 nM | > 10200 nM | Oc1cccc(-n2cc(C(O)c3c(C4CC4)sc4cncn34)nn2)c1 (racemic) [Example 215, rac-3-{4-[(2-Cyclopropyl-imidazo[5,1-b]thiazol-3-yl)-hydroxy-methyl]-[1,2,3]triazol-1-yl}-phenol] |
| 29.1 nM | > 10200 nM | COc1ccc(-n2cc(C(O)c3c(C4CC4)sc4cncn34)nn2)cc1O (racemic) [Example 216, rac-5-{4-[(2-Cyclopropyl-imidazo[5,1-b]thiazol-3-yl)-hydroxy-methyl]-[1,2,3]triazol-1-yl}-2-methoxy-phenol] |
| 9.6 nM | > 10200 nM | Oc1cc(-n2cc(C(O)c3c(C4CC4)sc4cncn34)nn2)ccc1Cl (racemic) [Example 217, rac-2-Chloro-5-{4-[(2-cyclopropyl-imidazo[5,1-b]thiazol-3-yl)-hydroxy-methyl]-[1,2,3]triazol-1-yl}-phenol] |
| 24.1 nM | > 10200 nM | Cc1ccc(-n2cc(C(O)c3c(C4CC4)sc4cncn34)nn2)cc1O (racemic) [Example 218, rac-5-{4-[(2-Cyclopropyl-imidazo[5,1-b]thiazol-3-yl)-hydroxy-methyl]-[1,2,3]triazol-1-yl}-2-methyl-phenol] |
| 63.2 nM | > 10200 nM | Oc1cc(-n2cc(C(O)c3c(C4CC4)sc4cncn34)nn2)cc(C(F)(F)F)c1 (racemic) [Example 219, rac-3-{4-[(2-Cyclopropyl-imidazo[5,1-b]thiazol-3-yl)-hydroxy-methyl]-[1,2,3]triazol-1-yl}-5-trifluoromethyl-phenol] |
| 27.2 nM | > 10200 nM | Cc1cc(O)cc(-n2cc(C(O)c3c(C4CC4)sc4cncn34)nn2)c1 (racemic) [Example 220, rac-3-{4-[(2-Cyclopropyl-imidazo[5,1-b]thiazol-3-yl)-hydroxy-methyl]-[1,2,3]triazol-1-yl}-5-methyl-phenol] |
| 90.2 nM | > 10200 nM | Oc1cc(Cl)ccc1-n1cc(C(O)c2c(C3CC3)sc3cncn23)nn1 (racemic) [Example 221, rac-5-Chloro-2-{4-[(2-cyclopropyl-imidazo[5,1-b]thiazol-3-yl)-hydroxy-methyl]-[1,2,3]triazol-1-yl}-phenol] |
| 97.2 nM | 7880 nM | OC(c1cnn(-c2ccc3c(c2)OCCO3)c1)c1c(C2CC2)sc2cncn12 (racemic) [Example 222, rac-(2-Cyclopropyl-imidazo[5,1-b]thiazol-3-yl)-[1-(2,3-dihydro-benzo[1,4]dioxin-6-yl)-1H-pyrazol-4-yl]-methanol] |
| 164 nM | > 10200 nM | COc1ccc(-n2cc(C(O)c3c(C4CC4)sc4cncn34)cn2)cn1 (racemic) [Example 223, rac-(2-Cyclopropyl-imidazo[5,1-b]thiazol-3-yl)-[1-(6-methoxy-pyridin-3-yl)-1H-pyrazol-4-yl]-methanol] |
| 1100 nM | > 10200 nM | CC(=O)Nc1ccc(-n2cc(C(O)c3c(C4CC4)sc4cncn34)cn2)cc1 (racemic) [Example 224, rac-N-(4-{4-[(2-Cyclopropyl-imidazo[5,1-b]thiazol-3-yl)-hydroxy-methyl]-pyrazol-1-yl}-phenyl)-acetamide] |
| 47.2 nM | > 10200 nM | CCc1sc2cncn2c1C(O)c1cn(-c2ccc(S(=O)(=O)NC)cc2)nn1 (racemic) [Example 225, rac-4-{4-[(2-Ethyl-imidazo[5,1-b]thiazol-3-yl)-hydroxy-methyl]-[1,2,3]triazol-1-yl}-N-methyl-benzenesulfonamide] |
| 63.6 nM | > 10200 nM | CNS(=O)(=O)c1ccc(-n2cc(C(O)c3c(C4CC4)sc4cncn34)nn2)cc1 (racemic) [Example 226, rac-4-{4-[(2-Cyclopropyl-imidazo[5,1-b]thiazol-3-yl)-hydroxy-methyl]-[1,2,3]triazol-1-yl}-N-methyl-benzenesulfonamide] |
